From publication PMC9124600 (Medical Oncology (Northwood, London, England), 2022)

Target: T1, MASTL kinase (Microtubule-associated serine/threonine kinase-like; Great wall kinase) (Homo sapiens, UniProt Q96GX5)
T1 sequence (Q96GX5 1-879): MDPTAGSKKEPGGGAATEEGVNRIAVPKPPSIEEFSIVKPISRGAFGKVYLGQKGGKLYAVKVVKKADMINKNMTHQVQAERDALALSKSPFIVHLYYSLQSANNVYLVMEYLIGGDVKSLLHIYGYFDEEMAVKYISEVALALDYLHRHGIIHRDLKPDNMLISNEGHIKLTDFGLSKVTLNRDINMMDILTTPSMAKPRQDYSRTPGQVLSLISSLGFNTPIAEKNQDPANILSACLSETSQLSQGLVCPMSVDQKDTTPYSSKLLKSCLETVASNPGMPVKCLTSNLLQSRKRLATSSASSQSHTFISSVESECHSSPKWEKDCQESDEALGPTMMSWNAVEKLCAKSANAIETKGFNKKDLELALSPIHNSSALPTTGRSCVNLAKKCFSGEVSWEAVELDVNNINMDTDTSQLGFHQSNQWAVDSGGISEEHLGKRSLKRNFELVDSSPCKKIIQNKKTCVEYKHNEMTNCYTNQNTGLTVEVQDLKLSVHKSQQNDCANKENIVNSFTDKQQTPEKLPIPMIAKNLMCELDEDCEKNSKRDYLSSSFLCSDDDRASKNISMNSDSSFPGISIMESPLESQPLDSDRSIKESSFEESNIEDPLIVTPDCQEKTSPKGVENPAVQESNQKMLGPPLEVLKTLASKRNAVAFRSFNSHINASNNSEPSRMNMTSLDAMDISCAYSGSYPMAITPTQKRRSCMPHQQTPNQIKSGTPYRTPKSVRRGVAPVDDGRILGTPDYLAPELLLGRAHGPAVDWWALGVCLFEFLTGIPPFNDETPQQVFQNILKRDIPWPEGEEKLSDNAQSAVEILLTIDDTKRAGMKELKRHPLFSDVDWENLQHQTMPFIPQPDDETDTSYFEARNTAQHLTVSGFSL
Experiment: ADP-Glo luminescent in vitro kinase assay
Format: biochemical

SMILES | EC50
Cn1cc(C2=C(c3cn(C4CCN(Cc5ccccn5)CC4)c4ccccc34)C(=O)NC2=O)c2ccccc21 [Enzastaurin] | 17.1 µM
CC(=O)c1c(C)c2cnc(Nc3ccc(N4CCNCC4)cn3)nc2n(C2CCCC2)c1=O [Palbociclib] | 10.5 µM
